# Results: patent EP0146258A2, “Glycerol derivatives” (ONO PHARMACEUTICAL CO., LTD., priority 1983, dated 1985)
# System: mice
# Assay: Acute toxicity by intravenous administration
# Format: in vivo
# Conditions: intravenously administered to tail vein in five mice at the dose of 50 mg/kg
# Procedure: On the other hand, it was confirmed that the acute toxicity of all extent of the compounds of the present invention was more than 50 mg/kg by intravenous administration. Therefore, glycerol derivatives of the present invention may be considered to be sufficiently safe and suitable for medical use. For example, the mortality (dead/used) in glycerol derivatives of the present invention, i.e. compounds prepared in Example 1(h) and 11(a) was 0/5 and 0/5, respectively, when each glycerol compound was intravenously administered to tail vein in five mice at the dose of 50 mg/kg.
row,Compound,mortality (dead/used)
1,CCCCCCCCCCCCCCCCOCC(COCCCCCCC[N+]1(C)CCCC1)NC(C)=O (centres unmarked) [11(a)],0/5
2,CCCCCCCCCCCCCCCCOCC(COCCCCCCC[n+]1ccsc1)OCC (centres unmarked) [Example 1(h)],0/5
